From patent EP0191624A2, “Gold-purine antitumor agents” (ENGELHARD CORPORATION, priority 1985, dated 1986)
“And” between values parts separate entries of the source, which are not always exact repeats. Equal entries are not always repeated.

Legend:
[1] = system: S180 ascites; experiment: Screening for anti-tumor activity against S180 ascites (increase in life span); assay type: in vivo, female CFW Swiss mice; details: for %ILS: injected day 1; for 30-Day Survivors: survivors/mice in set
Description: The compounds were evaluated for anti-tumor activity against S180 ascites in female CFW Swiss mice by the following procedure: • CFW mice, averaging 20g, are immediately inspected and placed in newly prepared cages. On day zero the mice are inoculated with 0.2 ml. of a freshly prepared saline suspension (0.15 M NaCl) containing 1 x 10^7 tumor cells/ ml, or a total of 2 x 10^6 cells. This inoculum is freshly prepared using "transfer" mice which have been injected with tumor cells the previous week. This inoculum is the end-product of a series of steps which involves (1) the removal of the cells from the peritoneal cavity of the sacrificed transfer mouse, (2) alternate centrifugation- washing (2-3 times with cold saline) to remove occasional blood and other undesirable components, and finally (3) dilution (1:3) of the packed cell volume with saline (the final centrifugation being carried out at 1,000 rpm for 2 min.). A cell count is made on a 2,000-fold dilution of this 1:3 suspension by means of a Coulter Counter. A final dilution to 1 x 10^7 cells/ml. is made based on the averaged count. On day 1, solutions of the test compounds are prepared and the mice injected, with each mouse of a set of six being injected with the same test compound at the same dose level.
Also, on this day, two types of controls (6 mice/se are employed: (1) Normal (1 set): 0.5 ml. of the solvent medium used for the test compound, and (2) Positive control (1 set): a known anti-tumor agent (cis-(Pt(NH3)2Cl2] in saline at 8 mg./kg.), used to test the response of the biological system.
ILS values above 50% represent significant activity; those above 75% represent excellent activity.

[2] = Solubility in water; assay type: physicochemical
[3] = Stability in aqueous solution with respect to reduction; assay type: physicochemical
[4] = C. Dragulescu et al, Int. Coord. Chem. Conf. XVI 1,99 (1974); cited from earlier work
[5] = positive control in saline at 8 mg./kg., run alongside each test compound

Cl.Cn1c(=O)c2c(ncn2CC(O)CO)n(C)c1=O.Cn1c(=O)c2c(ncn2CC(O)CO)n(C)c1=O.[Cl][Au]([Cl])[Cl] (stereo not shown) [Example 2, [AuCl3(7-(2,3-dihydroxy-propyl)theophylline)] (7-(2,3-dihydroxypropyl)theophylline)·HCl]
%ILS ([1]; dose 10 mg/kg): -13% | 30-Day Survivors ([1]; dose 10 mg/kg): 0/6 | %ILS ([1]; dose 20 mg/kg): -11% | 30-Day Survivors ([1]; dose 20 mg/kg): 0/6 | %ILS ([1]; dose 40 mg/kg): -3% | 30-Day Survivors ([1]; dose 40 mg/kg): 0/6 | %ILS ([1]; dose 80 mg/kg): 69% | 30-Day Survivors ([1]; dose 80 mg/kg): 2/6 | %ILS ([1]; dose 160 mg/kg): 34% | 30-Day Survivors ([1]; dose 160 mg/kg): 1/6 | %ILS ([1]; dose 320 mg/kg): -62% | 30-Day Survivors ([1]; dose 320 mg/kg): 0/6 | soluble in water [2]: at least 64 mg/5 ml | stable, at least with respect to reduction, in solution [3]: ca. 24 hours

Cl.Cn1c(=O)c2c(ncn2CCCl)n(C)c1=O.Cn1c(=O)c2c(ncn2CCCl)n(C)c1=O.[Cl][Au]([Cl])[Cl] [Example 1, [AuCl3(7-chloroethyl-theophylline)](7-chloro-ethyltheophylline)·HCl]
%ILS ([1]; dose 5 mg/kg): 8% | 30-Day Survivors ([1]; dose 5 mg/kg): 0/6 | %ILS ([1]; dose 10 mg/kg): -3% | 30-Day Survivors ([1]; dose 10 mg/kg): 0/6 | %ILS ([1]; dose 20 mg/kg): 14% | 30-Day Survivors ([1]; dose 20 mg/kg): 0/6 | %ILS ([1]; dose 40 mg/kg): 9% | 30-Day Survivors ([1]; dose 40 mg/kg): 0/6 | %ILS ([1]; dose 80 mg/kg): 79% | 30-Day Survivors ([1]; dose 80 mg/kg): 3/6 | %ILS ([1]; dose 160 mg/kg): 3% | 30-Day Survivors ([1]; dose 160 mg/kg): 1/6 | soluble in water [2]: at least 64 mg/5 ml | stable, at least with respect to reduction, in solution [3]: ca. 24 hours

[Au(III)(5-diazauracil)2Cl2]Cl
antitumor activity in mice [4]: possess antitumor activity

N.N.[Cl][Pt][Cl] [Control, cis-diamminedichloroplatinum(II), reference compound]
Control 30-Day Survivors [1, 5]: 3/6 and 4/5 | Control %ILS [1, 5]: 80% and 96%
